The source of these data is patent publication US12421228B2 (Mirati Therapeutics, Inc., priority 2019, dated 2025).

Some results are limits rather than exact numbers.

In test [1] the target is purified human, His-tagged PRC2 complex (Homo sapiens (Human), UniProt O75530). Description: Hot Spot HMT assay, inhibition of PRC2 enzymatic activity. The following applies: 10 nM PRC2 complex, 0.05 mg/ml core histone H3, 1 μM 3H-SAM, 1 hr at 30° C.; read-out: IC50, Inhibition of PRC2-mediated Enzymatic Activity. The class given is biochemical. In short, it runs like this: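 Ten-point, three-fold dilution series from 1.0 μM. 10 nM PRC2 with 0.05 mg/ml core histone H3 in pH 8 Tris buffer was pre-incubated 20 min at 30 °C, then reacted with 1 μM [3H]-SAM for 1 hr at 30 °C. Tritiated H3 was captured by filter binding and scintillation-counted; IC50 was taken from the dose-response curve.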
Chain of purified human, His-tagged PRC2 complex (Q15910 whole entry): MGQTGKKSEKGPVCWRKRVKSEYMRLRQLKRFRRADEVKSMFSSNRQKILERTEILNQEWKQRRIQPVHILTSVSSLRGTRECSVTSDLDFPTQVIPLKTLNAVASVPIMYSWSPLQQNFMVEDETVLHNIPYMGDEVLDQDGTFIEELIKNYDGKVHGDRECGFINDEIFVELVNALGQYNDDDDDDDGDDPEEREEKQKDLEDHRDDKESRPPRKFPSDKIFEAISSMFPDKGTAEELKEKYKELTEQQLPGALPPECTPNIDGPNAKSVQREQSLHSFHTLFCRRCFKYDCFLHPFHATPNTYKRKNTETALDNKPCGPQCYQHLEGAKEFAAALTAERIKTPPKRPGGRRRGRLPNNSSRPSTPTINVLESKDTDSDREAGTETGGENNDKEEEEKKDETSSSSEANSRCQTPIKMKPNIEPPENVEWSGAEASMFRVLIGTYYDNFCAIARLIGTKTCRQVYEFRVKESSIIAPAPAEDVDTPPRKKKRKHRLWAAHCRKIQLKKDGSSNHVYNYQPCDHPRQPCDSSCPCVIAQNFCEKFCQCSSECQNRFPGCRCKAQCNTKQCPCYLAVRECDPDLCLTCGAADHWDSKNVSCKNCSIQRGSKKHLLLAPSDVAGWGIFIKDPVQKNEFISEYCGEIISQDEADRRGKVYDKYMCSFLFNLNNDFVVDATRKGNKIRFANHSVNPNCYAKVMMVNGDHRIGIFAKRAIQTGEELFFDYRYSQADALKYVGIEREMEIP
Chain of purified human, His-tagged PRC2 complex (O75530 whole entry): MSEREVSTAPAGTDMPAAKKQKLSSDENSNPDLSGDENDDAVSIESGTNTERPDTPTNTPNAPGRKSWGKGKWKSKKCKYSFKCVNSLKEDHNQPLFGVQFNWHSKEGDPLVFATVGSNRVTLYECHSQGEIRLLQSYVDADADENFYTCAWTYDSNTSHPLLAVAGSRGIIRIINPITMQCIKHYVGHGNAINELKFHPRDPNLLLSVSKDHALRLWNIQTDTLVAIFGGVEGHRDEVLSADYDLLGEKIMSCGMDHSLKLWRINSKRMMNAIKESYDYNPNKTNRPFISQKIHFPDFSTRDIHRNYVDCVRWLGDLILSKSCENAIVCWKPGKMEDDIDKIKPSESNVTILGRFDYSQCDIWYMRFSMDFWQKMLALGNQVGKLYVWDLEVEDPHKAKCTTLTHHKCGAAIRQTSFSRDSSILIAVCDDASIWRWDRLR
Chain of purified human, His-tagged PRC2 complex (Q15022 whole entry partner): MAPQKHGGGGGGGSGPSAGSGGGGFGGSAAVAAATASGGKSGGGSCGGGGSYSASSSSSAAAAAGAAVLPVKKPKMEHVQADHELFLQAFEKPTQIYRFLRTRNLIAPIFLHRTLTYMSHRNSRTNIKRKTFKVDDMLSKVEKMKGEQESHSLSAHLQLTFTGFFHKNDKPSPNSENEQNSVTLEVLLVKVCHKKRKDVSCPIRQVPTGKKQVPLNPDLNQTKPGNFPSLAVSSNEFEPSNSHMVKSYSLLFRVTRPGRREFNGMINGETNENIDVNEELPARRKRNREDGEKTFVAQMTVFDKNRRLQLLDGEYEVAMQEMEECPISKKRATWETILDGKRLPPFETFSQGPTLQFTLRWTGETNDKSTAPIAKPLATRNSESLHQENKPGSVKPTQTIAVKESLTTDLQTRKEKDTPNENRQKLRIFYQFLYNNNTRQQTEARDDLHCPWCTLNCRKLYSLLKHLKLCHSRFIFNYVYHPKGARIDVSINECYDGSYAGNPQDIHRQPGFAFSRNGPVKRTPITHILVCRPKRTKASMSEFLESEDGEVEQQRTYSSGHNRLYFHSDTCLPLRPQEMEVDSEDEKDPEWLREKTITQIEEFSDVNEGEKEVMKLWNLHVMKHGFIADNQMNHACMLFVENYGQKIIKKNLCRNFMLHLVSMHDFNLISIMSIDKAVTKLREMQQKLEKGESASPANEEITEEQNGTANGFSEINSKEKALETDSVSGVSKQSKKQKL
Chain of purified human, His-tagged PRC2 complex (Q6ZN18 whole entry partner): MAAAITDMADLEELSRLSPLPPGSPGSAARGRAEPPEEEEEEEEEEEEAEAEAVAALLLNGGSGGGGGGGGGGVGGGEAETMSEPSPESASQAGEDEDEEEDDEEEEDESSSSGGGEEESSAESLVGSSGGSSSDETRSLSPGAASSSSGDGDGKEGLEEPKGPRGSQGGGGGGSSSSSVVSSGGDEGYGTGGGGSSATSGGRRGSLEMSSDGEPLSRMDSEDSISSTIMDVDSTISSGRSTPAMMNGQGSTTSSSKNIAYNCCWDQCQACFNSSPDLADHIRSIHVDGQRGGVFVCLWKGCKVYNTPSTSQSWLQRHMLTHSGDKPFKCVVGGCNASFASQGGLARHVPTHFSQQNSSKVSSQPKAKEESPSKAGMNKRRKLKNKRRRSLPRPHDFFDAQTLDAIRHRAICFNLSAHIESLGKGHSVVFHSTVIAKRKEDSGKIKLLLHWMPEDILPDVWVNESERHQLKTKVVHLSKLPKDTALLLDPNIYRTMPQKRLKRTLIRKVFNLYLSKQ
Chain of purified human, His-tagged PRC2 complex (Q09028 whole entry partner): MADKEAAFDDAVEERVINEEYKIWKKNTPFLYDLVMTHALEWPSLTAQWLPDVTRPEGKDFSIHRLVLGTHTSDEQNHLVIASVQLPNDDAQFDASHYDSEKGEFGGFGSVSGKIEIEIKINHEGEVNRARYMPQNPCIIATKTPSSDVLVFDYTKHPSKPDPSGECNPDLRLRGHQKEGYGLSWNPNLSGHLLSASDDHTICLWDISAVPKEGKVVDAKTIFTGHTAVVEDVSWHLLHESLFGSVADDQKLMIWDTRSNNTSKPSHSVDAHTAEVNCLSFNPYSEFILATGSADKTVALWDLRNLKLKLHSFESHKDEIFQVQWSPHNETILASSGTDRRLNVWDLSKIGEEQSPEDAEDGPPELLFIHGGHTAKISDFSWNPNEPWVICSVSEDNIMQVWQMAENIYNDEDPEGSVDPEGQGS

Test [2] relates to PRC2-mediated histone H3 methylation in Pfeiffer cells (EZH2 A677G). Description: Tri-Methyl Histone H3 (Lys 27) sandwich ELISA in Pfeiffer cells. The settings on record: Homo sapiens, 96 hours incubation, H3K27me3 ELISA, read-out: IC50 (nM), Inhibition of EZH2-mediated Histone H3 Trimethylation. Type of test: cell-based. In short, it runs like this: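 Pfeiffer DLBCL cells (EZH2 A677G) exposed to 3-fold serial compound dilutions for 96 h at 37 °C. Acid-extracted (0.4 M HCl), neutralized histones then assayed by sandwich ELISA for H3K27me3 with HRP/TMB readout at 450 nm; potency reported in bins (A ≤100 nM, B >100–≤500 nM, C >500 nM).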

For test [3], the system named is Karpas 422 cells (EZH2 Y641N). Briefly: Karpas 422 cell viability (Cell Titre Glo). The following applies: Homo sapiens, CTG viability, Day 4, Day 7 or Day 11 (time point not given), read-out: IC50 (nM), Inhibiting Proliferation of Cells Expressing an Activating Mutant Form of EZH2. The class given is cell-based. In short, it runs like this:
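Karpas 422 cells (EZH2 Y641N) in RPMI with 20% FBS, 1000 cells/well, exposed to compound from 10 μM in 3-fold dilutions down to 1.5 nM at 37° C. Viability by CellTiter-Glo at Day 4, 7 or 11; Day 11 plates re-fed with fresh medium and compound on Day 7. IC50 per time point.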

On to `Cc1cc(-c2cnc(NCc3c(F)ccc4c3CCO4)c3cnc(N(C)C)cc23)n(C)n1` [Example 49, 4-(1,3-dimethyl-1H-pyrazol-5-yl)-N^1-((5-fluoro-2,3-dihydrobenzofuran-4-yl)methyl)-N^6,N^6-dimethyl-2,7-naphthyridine-1,6-diamine], for which the IC50 in test [1] is 100 to 250 nM; in test [2] it was over 500 nM; in test [3], over 500 nM.

For `Cc1cc(-c2cnc(NCc3c(F)ccc4c3CCO4)c3cnc(N)cc23)n(C)n1` [Example 50, 4-(1,3-dimethyl-1H-pyrazol-5-yl)-N^1-((5-fluoro-2,3-dihydrobenzofuran-4-yl)methyl)-2,7-naphthyridine-1,6-diamine], the IC50 was over 250 nM in test [1], over 500 nM in test [2] and over 500 nM in test [3].

Regarding `Cc1cc(-c2cnc(NCc3c(F)ccc4c3CCO4)c3cccnc23)n(C)n1` [Example 51, 8-(1,3-dimethyl-1H-pyrazol-5-yl)-N-((5-fluoro-2,3-dihydrobenzofuran-4-yl)methyl)-1,6-naphthyridin-5-amine], the IC50 in test [1] was over 250 nM; in test [2], 100 to 500 nM; in test [3], at most 250 nM.

With `COc1ccc2c(NCc3c(F)ccc4c3CCO4)ncc(-c3cc(C)nn3C)c2n1` [Example 52, 8-(1,3-dimethyl-1H-pyrazol-5-yl)-N-((5-fluoro-2,3-dihydrobenzofuran-4-yl)methyl)-2-methoxy-1,6-naphthyridin-5-amine], the IC50 in test [1] was over 250 nM; in test [2] it was over 500 nM; in test [3] it was over 500 nM.

As to `Cc1cc(-c2cnc(NCc3c(F)ccc4c3CCO4)c3ccc(=O)[nH]c23)n(C)n1` [Example 53], the IC50 in test [1] is over 250 nM; in test [2] it was 100 to 500 nM; in test [3], at most 250 nM.

For `COc1nccc2c(NCc3c(F)ccc4c3CCO4)ncc(-c3cc(C)nn3C)c12` [Example 54, 4-(1,3-dimethyl-1H-pyrazol-5-yl)-N-((5-fluoro-2,3-dihydrobenzofuran-4-yl)methyl)-5-methoxy-2,6-naphthyridin-1-amine], the results for the IC50 in test [1], in test [2] and in test [3] were over 250 nM, over 500 nM and 250 to 500 nM, respectively.

With `Cc1cc(-c2cnc(NCc3c(F)ccc4c3CCO4)c3cc[nH]c(=O)c23)n(C)n1` [Example 55, 8-(1,3-dimethyl-1H-pyrazol-5-yl)-5-(((5-fluoro-2,3-dihydrobenzofuran-4-yl)methyl)amino)-2,6-naphthyridin-1(2H)-one], the values for the IC50 in test [1], in test [2] and in test [3] were over 250 nM, over 500 nM and at most 250 nM, respectively.

As for `Cc1cc(-c2cnc(NCc3c(F)ccc4c3CCO4)c3ccncc23)n(C)n1` [Example 56, 4-(1,3-dimethyl-1H-pyrazol-5-yl)-N-((5-fluoro-2,3-dihydrobenzofuran-4-yl)methyl)-2,6-naphthyridin-1-amine], the figures for the IC50 in test [1], in test [2] and in test [3] were over 250 nM, 100 to 500 nM and over 500 nM, respectively.

Turning to `COc1ncnc2c(NCc3c(F)ccc4c3CCO4)ncc(-c3cc(C)nn3C)c12` [Example 57, 5-(1,3-dimethyl-1H-pyrazol-5-yl)-N-((5-fluoro-2,3-dihydrobenzofuran-4-yl)methyl)-4-methoxypyrido[3,4-d]pyrimidin-8-amine], the values for the IC50 in test [1], in test [2] and in test [3] were over 250 nM, over 500 nM and over 500 nM, respectively.

In the case of `Cc1cc(-c2cnc(NCc3c(F)ccc4c3CCO4)c3nc[nH]c(=O)c23)n(C)n1` [Example 58, 5-(1,3-dimethyl-1H-pyrazol-5-yl)-8-(((5-fluoro-2,3-dihydrobenzofuran-4-yl)methyl)amino)pyrido[3,4-d]pyrimidin-4(3H)-one], the IC50 in test [1] was over 250 nM; in test [2], over 500 nM; in test [3], over 500 nM.

Turning to `Cc1cc(-c2cnc(NCc3c(F)ccc4c3CCO4)c3ncncc23)n(C)n1` [Example 59, 5-(1,3-dimethyl-1H-pyrazol-5-yl)-N-((5-fluoro-2,3-dihydrobenzofuran-4-yl)methyl)pyrido[3,4-d]pyrimidin-8-amine], the IC50 in test [1] was over 250 nM; in test [2] it was over 500 nM; in test [3], over 500 nM.
